Measured values taken from patent US11464791B2, “Use of paricalcitol in the treatment of inflammatory anaemia” (priority 2014, dated 2022).
Where two headings read alike, the source gives them in different places.

Legend:
[1] = Study B: cross-sectional comparison of paricalcitol and calcitriol (ESA dose, Hb, PTHi, ferrokinetics); assay type: in vivo, human; conditions: for ESA doses required: Epoetin beta; for PTHi: median (p25-p75)
Protocol: A cross-sectional study designed to assess the differences between calcitriol and paricalcitol associated with the use of ESAs, both used in the treatment of secondary hyperparathyroidism. A total of 92 patients from the Chronic Dialysis Unit of the Hospital Universitario Son Espases (HUSE) in Palma de Mallorca and from the Chronic Haemodialysis Unit of the Policlínica Miramar were included. A total of 31 patients were treated with calcitriol and a total of 61 patients were treated with paricalcitol. The ESA analysed was Epoetin beta (Neorecormon).
In order to determine whether treatment with calcitriol is capable of giving rise to the same results obtained in the treatment with paricalcitol, the groups of patients included in Study B were analysed (Table 2), one of the groups treated with paricalcitol (n=61) and the other group treated with calcitriol (n=31).

[2] = tested on: transferrin saturation index (TSI); assay: Study A: evolution of the transferrin saturation index (TSI); assay type: in vivo, human; conditions: for average TSI: subgroup with IV Fe (n=25)
Protocol: (§1) A controlled prospective study in which the evolution of ESA doses, Fe supplement doses, evolution of Fe, of transferrin, of ferritin, of the transferrin saturation index, of the haemoglobin levels and of the non-conventional markers associated with inflammatory anaemia was determined: Hepcidin and IL-6 and analysis of the hormones associated with a improved erythropoietic response. The variability of the haemoglobin was also assessed. A total of 31 patients were included in this study. The ESAs used by the patients were Epoetin beta (Neorecormon) and CERA.
(§2) This study is a controlled, observational and analytical prospective-type study of cases and controls. The study lasted six months. In the first three months the ESA dose titrations were obtained and, in the remaining three months corresponded to the maintenance phase. The data shown in the present invention form part of the MIR-EPO Study (EudraCT: 2009-015511-40) https://www.clinicaltrialsregister.eu. The design of the MIR-EPO Study assessed patients being treated with an erythropietic agent (Epoetin-beta-Neorecormon or CERA). In said patients, the differences between the groups with and without paricalcitol were analysed, due to which the results shown in the present invention related specifically to the following groups: • Group of patients being treated with paricalcitol (paricalcitol+ESA), i.e. combined treatment, and • Group of patients being treated exclusively with an ESA.
The administration of iron supplements shall always be intravenous with the aim of maintaining a transferrin saturation index (TSI %) greater than 20%.

Erythropoietin = assay: Study A: plasma erythropoietin levels (ELISA); assay type: in vivo, human
Protocol: Analytical determinations: all the blood samples were analysed in the central laboratory of the HUSE, applying the methodology regularly used in clinical practice: • Hb: Haemoglobin was determined on a monthly basis prior to the dialysis session and corresponding weekday. The analysis of the samples was performed using flow cytometry (CELL-DYN Sapphire®—Abbott) at the central laboratory of the HUSE. • Klotho: Human Soluble α-Klotho Assay Kit—IBL. ELISA (Enzyme-LinkedImmunoSorbentAssay) sandwich type using two types of high-specificity anti-Human Klotho antibodies (67G3 and 91F1). Using TeTraMeltilBenzidina (TMB) as a chromogeneous agent. • Hepcidin: DGR HepcidinProhormone ELISA kit. ELISA (Enzyme-LinkedImmunoSorbentAssay) of competitive type with anti-Pro-Hepcidin (polyclonal) antibodies. • IL-6: Quantikine ELISA Human IL-6 immunoassay. ELISA (Enzyme-LinkedImmunoSorbentAssay) sandwich type using specific antibodies for mouse monoclonal and polyclonal IL-6. • Erythropoietin: Quantikine IVD ELISA Human Erythropoietin Immunoassay. […]
The non-conventional inflammatory parameters were determined in months 3 and 6 of the study, due to the fact that it is considered that the first three months of the study were dedicated to ESA dose titration and the last three months to the maintenance phase, as mentioned previously. […]

PTH = conditions: oral paricalcitol, cited from earlier work
[3] = Study A (MIR-EPO): ESA dose requirements; assay type: in vivo, human
Protocol: as §1
as §2, with “The data shown in the present invention form part of the MIR-EPO Study (EudraCT: 2009-015511-40) https://www.clinicaltrialsregister.eu.” left out, “ESA. […]” for “ESA.”

[4] = paricalcitol >10 μg/dialysis, haemodialysis patients; cited from earlier work
[5] = Study C: cross-sectional study of paricalcitol dose versus ESA dose and Hb levels; assay type: in vivo, human; conditions: paricalcitol 5-10 μg/week
Source text: A cross-sectional study designed to assess the distribution of the dose of paricalcitol (μg/week) associated with a greater erythropoietic response. That is, the aim is to assess the predictive capacity of the doses of paricalcitol (μg/week) over the doses of ESA (UI/week), in addition to assessing the doses of paricalcitol to predict Hb levels (g/dl) and identify the doses of paricalcitol associated with certain Hb levels in a range between 10 and 12 g/dl, which are the levels considered to be optimum.
A total of 58 patients were included in this study. The ESA analysed was Epoetin beta (Neorecormon).
In order to determine the most adequate doses required to obtain the best Hb levels and reduce the need for ESAs, a regression analysis was performed between the Hb levels, the doses of ESAs and the dose of paricalcitol in the group of patients of Study C (FIG. 2). As can be observed in said FIG. 2, the doses comprised between 5 and 10 μg were associated to a reduced need for ESAs. This trend was modified on increasing the doses of paricalcitol, due to which, according to this regression model, the administration of doses of paricalcitol higher than 10 μg/week predicts a greater use of ESAs.

plasma iron (Fe^2+) = assay: Study A: evolution of iron (Fe^2+) levels; assay type: in vivo, human; conditions: for Fe^2+ levels: subgroup with IV Fe supplements (n=25)
Protocol: as §1, §2

SMILES: C=C1/C(=C\C=C2/CCC[C@]3(C)[C@@H]([C@H](C)CCCC(C)(C)O)CC[C@@H]23)C[C@@H](O)C[C@@H]1O [calcitriol]
- Ferritin [1]: 168 (111-298) ng/ml
- Hb levels [1]: 11.10 ± 1.16 g/dL
- TSI % [1]: 24 ± 10%
- ESA doses required [1]: 9000 UI/week
- PTHi [1]: 358 (230-623) pg/ml

SMILES: C=C1CC[C@H](O)C/C1=C/C=C1\CCC[C@]2(C)[C@@H]([C@H](C)CCCC(C)(C)O)CC[C@@H]12 [hidroferol, calcifediol]
- effect over TSI ([2]; 6 months): not beneficial
- TSI levels ([2]; month 0): 29±12%
- TSI levels ([2]; month 3): 33±14%
- TSI levels ([2]; month 6): 25±9%

SMILES: C[C@H](/C=C/[C@H](C)C(C)(C)O)[C@H]1CC[C@H]2/C(=C/C=C3C[C@@H](O)C[C@H](O)C3)CCC[C@]12C [paricalcitol, 19-nor-1, 25-(OH) 2-vitamin D2]
- plasma erythropoietin levels (Erythropoietin; month 3): 8.6 (4.6-16.7) mUI/ml
- plasma erythropoietin levels (Erythropoietin; month 6): 20.2 (7.2-33.6) mUI/ml
- PTH levels (PTH; after treatment): 93 pg/mL
- PTH levels (PTH; basal level): 147 pg/mL
- reduction of PTH levels with respect to the basal level (PTH): ~40%
- evolution of ESA requirements ([3]; months 0-6): significant decrease
- lower dose of ESA versus group treated exclusively with ESA ([3]; subgroup with IV Fe, month 6): 24%
- calcium levels [4]: 9.8 mg/dL
- Ferritin [1]: 494 (244-701) ng/ml
- Hb levels [1]: 11.89 ± 0.13 g/dL
- TSI % [1]: 30 ± 10%
- ESA doses required [1]: approximately 4000 UI/week
- PTHi [1]: 276 (170-449) pg/ml
- average TSI ([2]; month 0): 25±6%
- average TSI ([2]; month 3): 24±5%
- average TSI ([2]; month 6): 30±19%
- plasma Hb levels predicted by regression [5]: 10-12 g/dl
- Iron (Fe^2+) levels (plasma iron (Fe^2+); month 0): 68 ± 23 µg/dL
- Iron (Fe^2+) levels (plasma iron (Fe^2+); month 3): 68 ± 28 µg/dL
- Iron (Fe^2+) levels (plasma iron (Fe^2+); month 6): 66 ± 37 µg/dL
- Fe^2+ levels (plasma iron (Fe^2+); month 0): 61 ± 16 µg/dL
- Fe^2+ levels (plasma iron (Fe^2+); month 3): 57 ± 14 µg/dL
- Fe^2+ levels (plasma iron (Fe^2+); month 6): 68 ± 37 µg/dL
